Experimental data published in patent publication US20180148418A1, “AMIDO-SUBSTITUTED CYCLOHEXANE DERIVATIVES” (Bayer Pharma Aktiengesellschaft, priority 2015, published 2018).

Columns and labels:
[1] = test system: HEK293 cells cotransfected with the FOP control vector; test: HEK293 FOP assay (control reporter with non-functional TCF elements); format: cell-based; details: Homo sapiens, 16 hours
In short: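 Stable HEK293 line carrying FOP control reporter (randomized non-functional TCF sites, with pcDNA3), Geneticin-selected, plated 24 h before assay. Stimulated with recombinant human Wnt-3a (2500-5 ng/ml) and compounds 50 μM–15 nM (3.16-fold steps) in CAFTY buffer pH 7.4 with 2 mM Ca2+, 0.01% BSA, run parallel to TOP line.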

[2] = test system: wildtype Wnt signaling cascade; test: HEK293 TOP assay (Super TopFlash luciferase reporter, Wnt-3a stimulated); format: cell-based; details: Homo sapiens, HEK293, 16 h, HEK293 TOP reporter cells, Wnt3a at EC50, 16 hours
In short: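 HEK293 cells stably carrying Super TopFlash (TOP) run in parallel with FOP cells, 10000/well plated 24 h ahead, stimulated with recombinant human Wnt-3a. Compounds tested 50 μM to 15 nM in 3.16-fold steps in CAFTY buffer pH 7.4 with 2 mM Ca^2+ and 0.01% BSA; luciferase read-out.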

TNKS2 = molecular target: T1, TNKS2 (Homo sapiens, UniProt Q9H2K2); test: TNKS2 Assay B (auto-parsylation, [3H]-NAD+ SPA); format: biochemical; details: 6 nM TNKS2, auto-parsylation, over night at room temperature
T1 construct: purchased BPS Bioscience, San Diego, USA 80572 (TNKS2 Histone Ribosylation Assay Kit)
T1 sequence (Q9H2K2 1-1166): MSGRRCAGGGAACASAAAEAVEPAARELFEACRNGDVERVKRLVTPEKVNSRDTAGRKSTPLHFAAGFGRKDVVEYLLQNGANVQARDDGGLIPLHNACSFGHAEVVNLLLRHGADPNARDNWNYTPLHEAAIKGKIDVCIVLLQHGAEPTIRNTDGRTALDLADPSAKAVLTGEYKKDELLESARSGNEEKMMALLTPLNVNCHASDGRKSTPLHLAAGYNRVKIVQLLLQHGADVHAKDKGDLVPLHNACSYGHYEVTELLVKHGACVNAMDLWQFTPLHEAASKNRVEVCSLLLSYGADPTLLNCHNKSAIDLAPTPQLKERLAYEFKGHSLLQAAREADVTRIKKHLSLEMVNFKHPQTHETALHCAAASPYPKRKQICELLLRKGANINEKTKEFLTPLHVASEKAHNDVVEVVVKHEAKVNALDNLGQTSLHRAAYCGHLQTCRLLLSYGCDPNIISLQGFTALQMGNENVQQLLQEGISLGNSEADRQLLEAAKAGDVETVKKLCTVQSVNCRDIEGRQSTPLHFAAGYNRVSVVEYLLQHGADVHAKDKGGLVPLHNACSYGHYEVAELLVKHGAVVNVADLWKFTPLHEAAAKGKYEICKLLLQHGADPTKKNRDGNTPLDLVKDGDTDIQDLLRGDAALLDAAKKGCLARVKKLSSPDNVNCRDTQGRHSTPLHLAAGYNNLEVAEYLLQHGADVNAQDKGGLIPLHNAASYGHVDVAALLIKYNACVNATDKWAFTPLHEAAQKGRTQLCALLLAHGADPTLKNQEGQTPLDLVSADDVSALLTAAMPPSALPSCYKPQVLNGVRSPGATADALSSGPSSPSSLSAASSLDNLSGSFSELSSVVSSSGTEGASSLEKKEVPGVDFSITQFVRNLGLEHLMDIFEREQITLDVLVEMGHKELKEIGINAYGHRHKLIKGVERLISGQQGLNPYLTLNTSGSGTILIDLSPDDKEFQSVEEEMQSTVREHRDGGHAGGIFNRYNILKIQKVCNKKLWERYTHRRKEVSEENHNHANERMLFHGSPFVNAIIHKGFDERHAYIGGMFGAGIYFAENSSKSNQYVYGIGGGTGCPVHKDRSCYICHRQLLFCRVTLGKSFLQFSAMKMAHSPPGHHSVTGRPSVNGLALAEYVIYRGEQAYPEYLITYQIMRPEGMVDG

SMILES | IC50 [1] | IC50 [2] | IC50 (TNKS2)
O=C(N[C@H]1CC[C@@]2(CCN(c3c(F)cc(F)cc3Cl)C2=O)CC1)c1cnn2cccnc12 [Example 244, N-[(trans)-2-(2-chloro-4,6-difluorophenyl)-1-oxo-2-azaspiro[4.5]dec-8-yl]pyrazolo[1,5-a]pyrimidine-3-carboxamide] | ≥ 500 nM | 3.7 nM | 6.4 nM
O=C(N[C@H]1CC[C@@]2(CCN(c3cc(F)cc(F)c3)C2=O)CC1)c1cnn2cccnc12 [Example 245, N-[(trans)-2-(3,5-difluorophenyl)-1-oxo-2-azaspiro[4.5]dec-8-yl]pyrazolo[1,5-a]pyrimidine-3-carboxamide] | ≥ 50000 nM | 100 nM | 720 nM
O=C(N[C@H]1CC[C@@]2(CCN(c3cnccc3Cl)C2=O)CC1)c1cnn2cccnc12 [Example 246, N-[(trans)-2-(4-chloropyridin-3-yl)-1-oxo-2-azaspiro[4.5]dec-8-yl]pyrazolo[1,5-a]pyrimidine-3-carboxamide] | ≥ 50000 nM | 0.15 nM | 5.9 nM
Cn1nc(C(=O)N[C@H]2CC[C@@]3(CCN(c4ccc(F)cc4Cl)C3=O)CC2)c2ccccc21 [Example 247, N-[(trans)-2-(2-chloro-4-fluorophenyl)-1-oxo-2-azaspiro[4.5]dec-8-yl]-1-methyl-1H-indazole-3-carboxamide] | 13000 nM | 490 nM | 6000 nM
O=C(N[C@H]1CC[C@@]2(CCN(c3ccc(F)cc3Cl)C2=O)CC1)c1n[nH]c2cccc(I)c12 [Example 248, N-[(trans)-2-(2-chloro-4-fluorophenyl)-1-oxo-2-azaspiro[4.5]dec-8-yl]-4-iodo-1H-indazole-3-carboxamide] | ≥ 50000 nM | 5100 nM | > 10000 nM
Cn1nc(C(=O)N[C@H]2CC[C@H](C(=O)Nc3ccc(F)cc3Cl)CC2)c2ccccc21 [Example 249, N-{trans-4-[(2-chloro-4-fluorophenyl)carbamoyl]cyclohexyl}-1-methyl-1H-indazole-3-carboxamide] | ≥ 50000 nM | 14000 nM | > 10000 nM
Cn1nc2ccccc2c1C(=O)N[C@H]1CC[C@H](C(=O)Nc2ccc(F)cc2Cl)CC1 [Example 250, N-{trans-4-[(2-chloro-4-fluorophenyl)carbamoyl]cyclohexyl}-2-methyl-2H-indazole-3-carboxamide] | ≥ 50000 nM | ≥ 50000 nM | > 10000 nM
O=C(N[C@H]1CC[C@@]2(CCN(c3ccc(F)cc3Cl)C2=O)CC1)c1n[nH]c2ccccc12 [Example 251, N-[trans-2-(2-chloro-4-fluorophenyl)-1-oxo-2-azaspiro[4.5]dec-8-yl]-1H-indazole-3-carboxamide] | ≥ 50000 nM | 2500 nM | > 10000 nM
O=C(N[C@H]1CC[C@H](C(=O)Nc2ccc(F)cc2Cl)CC1)c1c[nH]c2ccccc12 [Example 252, N-{trans-4-[(2-chloro-4-fluorophenyl)carbamoyl]cyclohexyl}-1H-indole-3-carboxamide] | ≥ 50000 nM | ≥ 50000 nM | > 10000 nM
O=C(N[C@H]1CC[C@H](C(=O)Nc2ccc(F)cc2Cl)CC1)c1n[nH]c2ccccc12 [Example 253, N-{trans-4-[(2-chloro-4-fluorophenyl)carbamoyl]cyclohexyl}-1H-indazole-3-carboxamide] | 19000 nM | 20000 nM | > 10000 nM
O=C(N[C@H]1CC[C@H](C(=O)Nc2ccc(F)cc2Cl)CC1)c1n[nH]c2ccc(F)cc12 [Example 254, N-{trans-4-[(2-chloro-4-fluorophenyl)carbamoyl]cyclohexyl}-5-fluoro-1H-indazole-3-carboxamide] | ≥ 50000 nM | 10000 nM | > 10000 nM
O=C(N[C@H]1CC[C@H](C(=O)Nc2ccc(F)cc2Cl)CC1)c1c(Cl)nc2ccccn12 [Example 255, 2-chloro-N-{trans-4-[(2-chloro-4-fluorophenyl)carbamoyl]cyclohexyl}imidazo[1,2-a]pyridine-3-carboxamide] | ≥ 50000 nM | ≥ 50000 nM | > 10000 nM
NC(=O)c1nc[nH]c1C(=O)N[C@H]1CC[C@@]2(CCN(c3ccccc3Cl)C2=O)CC1 [Example 261, N^5-[(trans)-2-(2-chlorophenyl)-1-oxo-2-azaspiro[4.5]dec-8-yl]-1H-imidazole-4,5-dicarboxamide] | ≥ 50000 nM | 4.6 nM | 17 nM
O=C(N[C@H]1CC[C@@]2(CCN(c3ccccc3Cl)C2=O)CC1)c1[nH]cnc1C(=O)N1CC(F)C1 [Example 262, N-[(trans)-2-(2-chlorophenyl)-1-oxo-2-azaspiro[4.5]dec-8-yl]-4-[(3-fluoroazetidin-1-yl)carbonyl]-1H-imidazole-5-carboxamide] | ≥ 50000 nM | 0.08 nM | 7 nM
O=C(N[C@H]1CC[C@@]2(CCN(c3ccccc3Cl)C2=O)CC1)c1[nH]cnc1C(=O)N1CC2(COC2)C1 [Example 263, N-[(trans)-2-(2-chlorophenyl)-1-oxo-2-azaspiro[4.5]dec-8-yl]-4-(2-oxa-6-azaspiro[3.3]hept-6-ylcarbonyl)-1H-imidazole-5-carboxamide] | ≥ 50000 nM | 2.7 nM | 11 nM
O=C(N[C@H]1CC[C@@]2(CCN(c3ccccc3Cl)C2=O)CC1)c1n[nH]c2cccnc12 [Example 272, N-[(trans)-2-(2-chlorophenyl)-1-oxo-2-azaspiro[4.5]dec-8-yl]-1H-pyrazolo[4,3-b]pyridine-3-carboxamide] | ≥ 50000 nM | 200 nM | 640 nM
Cc1ccnc2c(C(=O)N[C@H]3CC[C@@]4(CCN(c5ccccc5Cl)C4=O)CC3)cnn12 [Example 273, N-[(trans)-2-(2-chlorophenyl)-1-oxo-2-azaspiro[4.5]dec-8-yl]-7-methylpyrazolo[1,5-a]pyrimidine-3-carboxamide] | ≥ 50000 nM | 1.9 nM | 11 nM
O=C(N[C@H]1CC[C@@]2(CCN(c3ccccc3Cl)C2=O)CC1)c1c[nH]c2cccnc12 [Example 274, N-[(trans)-2-(2-chlorophenyl)-1-oxo-2-azaspiro[4.5]dec-8-yl]-1H-pyrrolo[3,2-b]pyridine-3-carboxamide] | 38000 nM | 2.8 nM | 71 nM
O=C(N[C@H]1CC[C@@]2(CCN(c3cccc(Cl)c3)C2=O)CC1)c1c[nH]c2cccnc12 [Example 275, N-[(trans)-2-(3-chlorophenyl)-1-oxo-2-azaspiro[4.5]dec-8-yl]-1H-pyrrolo[3,2-b]pyridine-3-carboxamide] | 11000 nM | 600 nM | 300 nM
CN1CCN(C(=O)c2nc[nH]c2C(=O)N[C@H]2CC[C@@]3(CCN(c4cccc(Cl)c4)C3=O)CC2)CC1 [Example 283, N-[(trans)-2-(3-chlorophenyl)-1-oxo-2-azaspiro[4.5]dec-8-yl]-4-[(4-methylpiperazin-1-yl)carbonyl]-1H-imidazole-5-carboxamide] | 20000 nM | 440 nM | 4300 nM
O=C(NCCN1CCOCC1)c1nc[nH]c1C(=O)N[C@H]1CC[C@@]2(CCN(c3cccc(Cl)c3)C2=O)CC1 [Example 287, N^5-[(trans)-2-(3-chlorophenyl)-1-oxo-2-azaspiro[4.5]dec-8-yl]-N^4-[2-(morpholin-4-yl)ethyl]-1H-imidazole-4,5-dicarboxamide] | ≥ 50000 nM | 69 nM | 21 nM
Cc1cc(N2CC[C@]3(CC[C@@H](NC(=O)c4[nH]cnc4C(N)=O)CC3)C2=O)c(Cl)cc1F [Example 291, N^5-[(trans)-2-(2-chloro-4-fluoro-5-methylphenyl)-1-oxo-2-azaspiro[4.5]dec-8-yl]-1H-imidazole-4,5-dicarboxamide] | ≥ 50000 nM | 4.9 nM | 8.6 nM
